Species on record: Homo sapiens
Assay: Compound was tested for inhibitory activity against collagen induced platelet aggregation
Type: functional

| Structure (SMILES) | IC50 |
| --- | --- |
| O=C(O)COc1cccc2c1C[C@H]1C[C@@H](O)[C@H](C#C[C@@H](O)C3CCCCC3)[C@H]1C2 | 2.9 nM |
| O=C(O)COc1cccc2c1C[C@H]1C[C@@H](O)[C@H](C#C[C@@H](O)C3CCCCC3)[C@@H]1C2 | 52 nM |

From ChEMBL document CHEMBL1125947, “Triply-convergent syntheses of two homochiral arene-fused prostacyclin analogs related to U68,215” (Bioorg Med Chem Lett, 1991)
